Where “and” joins values, the source holds several entries; their conditions need not be identical. Equal entries are not always repeated.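 In this assay, cells in 96-well plates receive the compound at five concentrations for 48 hours. Endpoints are linearly interpolated between the surrounding concentrations. The concentration for 50% growth inhibition is given as GI50. Definition used: TGI = concentration required for complete inhibition of growth.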
Columns and labels:
Test in all cases: inhibition of tumour cell growth, NCI panel, 48 h
[1] = test system: MCF7 breast
[2] = test system: M14 melanoma
[3] = test system: OVCAR-3 ovarian
[4] = test system: SK-MEL-28 melanoma
[5] = test system: K-562 leukemia
[6] = test system: UO-31 renal

O=[N+]([O-])c1cccc(-c2nc(-c3ccc(Cl)cc3Cl)cn2-c2ccccc2)c1
GI50 [1]: 0.909 µM
TGI [1]: 4.02 µM
GI50 [2]: 1.45 µM
TGI [2]: > 14.9 µM
GI50 [3]: 0.458 µM
TGI [3]: 0.945 µM
GI50 [4]: 6.76 µM
TGI [4]: 24.2 µM
GI50 [5]: > 9.26 µM
TGI [5]: > 33.3 µM
GI50 [6]: 1.19 µM
TGI [6]: 7.29 µM

O=C(O)C1CC=CCC1C(=O)Nc1cccc(O)c1 (centres undefined)
TGI [1]: > 100 µM
TGI [2]: > 100 µM
TGI [3]: > 100 µM
TGI [4]: > 100 µM
TGI [5]: > 100 µM
TGI [6]: > 100 µM

O=C(O)c1cc2ccccc2c2c3c(ccc12)OCO3
GI50 [1]: 227 µM
TGI [1]: 895 µM
GI50 [2]: 179 µM
TGI [2]: 493 µM
GI50 [3]: 183 µM
TGI [3]: 468 µM
GI50 [4]: 167 µM
TGI [4]: 491 µM
GI50 [5]: 259 µM
TGI [5]: > 1000 µM
GI50 [6]: 116 µM
TGI [6]: 484 µM

O=S(=O)(NCCNc1nccc(-c2c(-c3ccc(F)c(O)c3)nc3sccn23)n1)c1ccc(Cl)cc1
GI50 [1]: 1.52 µM
TGI [1]: > 50 µM
GI50 [3]: 2.56 µM
TGI [3]: 14.9 µM
GI50 [6]: 0.94 µM
TGI [6]: > 50 µM

O=C1/C=C/[C@@H](O)[C@@H]2C[C@@H](O)C[C@H]2/C=C/CCC[C@H](CCc2ccc3ncccc3c2)O1
GI50 [1]: 0.27 µM
TGI [1]: > 100 µM
GI50 [2]: 0.327 µM
TGI [2]: 18.3 µM
GI50 [3]: 0.518 µM
TGI [3]: > 100 µM
GI50 [4]: 0.0637 µM
TGI [4]: 0.837 µM
GI50 [5]: 0.386 µM
TGI [5]: > 100 µM
GI50 [6]: 0.299 µM
TGI [6]: 20 µM

NCCCOc1cc2ccccc2cc1C(=O)Nc1ccc(Cl)cc1OC(=O)c1cc2ccccc2cc1OCCCN
GI50 [1]: 0.173 µM
TGI [1]: 0.332 µM
GI50 [2]: 0.321 µM
TGI [2]: 1.26 µM
GI50 [3]: 0.612 µM
TGI [3]: 1.43 µM
GI50 [4]: 0.382 µM
TGI [4]: 0.949 µM
GI50 [6]: 0.179 µM
TGI [6]: 0.433 µM

C=C1c2ccccc2C(=O)c2c1c1c(C(=O)OC)c(OC(=O)OCc3ccc([N+](=O)[O-])cc3)ccc1n2Cc1ccccc1
GI50 [1]: 13.4 µM
TGI [1]: 43.2 µM
GI50 [2]: 27.6 µM
TGI [2]: > 100 µM
GI50 [3]: 2.39 µM
TGI [3]: 8.05 µM
GI50 [5]: 2.55 µM
TGI [5]: > 100 µM
GI50 [6]: 8.28 µM
TGI [6]: 45.4 µM

COCCOCCOCc1n(Cc2ccc3ccccc3c2)c2ccccc2[n+]1Cc1ccc2ccccc2c1
GI50 [1]: 0.325 µM
TGI [1]: 1.45 µM
GI50 [2]: 0.491 µM
TGI [2]: 1.99 µM
GI50 [3]: 0.322 µM
TGI [3]: 1.48 µM
GI50 [4]: 0.503 µM
TGI [4]: 1.92 µM
GI50 [5]: 0.239 µM
TGI [5]: 1.46 µM
GI50 [6]: 1.83 µM
TGI [6]: 4.58 µM

C/C=C/C/C=C/[C@H](C)C[C@H](O)[C@@H]1C[C@@H]2O[C@H]2/C=C/[C@@H]2OC(C)(C)O[C@H]2/C=C/C[C@H](C)CC(=O)O1
GI50 [1]: 25.5 µM
TGI [1]: > 100 µM
GI50 [2]: 12.9 µM
TGI [2]: > 100 µM
GI50 [3]: 12.4 µM
TGI [3]: > 100 µM
GI50 [4]: 47.8 µM
TGI [4]: > 100 µM
GI50 [5]: 4.79 µM
TGI [5]: > 100 µM
GI50 [6]: 3.01 µM
TGI [6]: 18.7 µM

Nc1nonc1-c1nc2ccccc2n1Cc1ccc(F)cc1
GI50 [1]: 3.78 µM
TGI [1]: > 100 µM
GI50 [2]: 4.64 µM
TGI [2]: > 100 µM
GI50 [3]: 5.8 µM
TGI [3]: > 100 µM
GI50 [4]: 7.89 µM
TGI [4]: > 100 µM
GI50 [5]: 4.37 µM
TGI [5]: > 100 µM
GI50 [6]: 5.72 µM
TGI [6]: > 100 µM

COc1cc(Cl)cc(-c2nn(-c3cccc(NC(=O)Nc4cccc(C(F)(F)F)c4)c3)cc2-c2ccncc2)c1
GI50 [1]: 1.48 µM
TGI [1]: 7.57 µM
GI50 [2]: 1.34 µM
TGI [2]: 3.98 µM
GI50 [3]: 0.592 µM
TGI [3]: 4.62 µM
GI50 [4]: 2.53 µM
TGI [4]: 12.1 µM
GI50 [5]: 0.824 µM
TGI [5]: 14.4 µM
GI50 [6]: 1.03 µM
TGI [6]: 7.75 µM

CC(=O)Oc1ccc2c(c1)[C@@]1(C)CCCC(C)(C)[C@@H]1CC2
GI50 [1]: 34.6 µM
TGI [1]: > 100 µM
GI50 [2]: 18.2 µM
TGI [2]: 33.7 µM
GI50 [3]: 15.8 µM
TGI [3]: 41.1 µM
GI50 [4]: 19.3 µM
TGI [4]: 49.8 µM
GI50 [5]: 40 µM
TGI [5]: > 100 µM
GI50 [6]: 31.3 µM
TGI [6]: 79.9 µM

CO[C@@H]1CCN(c2nccc(Nc3cc4c(C(C)C)ccc(N5CC(CS(C)(=O)=O)[C@H]5C)c4cn3)n2)C[C@@H]1F (some centres undefined)
GI50 [1]: 3.15 µM
TGI [1]: 14.8 µM
GI50 [2]: 5.93 µM
TGI [2]: > 100 µM
GI50 [3]: 3.07 µM
TGI [3]: > 100 µM
GI50 [4]: 5.52 µM
TGI [4]: > 100 µM
GI50 [5]: 2.9 µM
TGI [5]: > 100 µM
GI50 [6]: 1.41 µM
TGI [6]: 11.9 µM

CC(C)(C)OC(=O)NCCCCn1c2c(c3ccccc3c1=O)C(=O)c1ccccc1-2
GI50 [1]: 21.3 µM
TGI [1]: > 100 µM
GI50 [2]: 36.4 µM
TGI [2]: > 100 µM
GI50 [3]: 5.42 µM
TGI [3]: 23.3 µM
GI50 [4]: 38.2 µM
TGI [4]: > 100 µM
GI50 [5]: 24.8 µM
TGI [5]: > 100 µM
GI50 [6]: 8.29 µM
TGI [6]: > 100 µM

Nc1c(C(=O)Nc2ccccn2)sc2nc3c(cc12)C(O)CCC3 (centres undefined)
GI50 [1]: 1.02 µM
TGI [1]: > 50 µM
GI50 [2]: 0.949 µM
TGI [2]: > 50 µM
GI50 [3]: 1.35 µM
TGI [3]: 4.11 µM
GI50 [4]: > 50 µM
TGI [4]: > 50 µM
GI50 [5]: 0.319 µM
TGI [5]: > 50 µM
GI50 [6]: 3.68 µM
TGI [6]: > 50 µM

CCOC(=O)Nc1nc2ccccc2[nH]1
GI50 [1]: 3.63 µM and 3.15 µM
TGI [1]: > 100 µM
GI50 [2]: 3.48 µM and 3.43 µM
TGI [2]: > 100 µM
GI50 [3]: 4.09 µM and 2.19 µM
TGI [3]: 20.4 µM and 5.61 µM
GI50 [4]: 8.43 µM
TGI [4]: > 100 µM
GI50 [5]: 3.48 µM and 1.85 µM
TGI [5]: > 100 µM
GI50 [6]: 5.8 µM and 5.34 µM
TGI [6]: > 100 µM

[N-]=[N+]=NCCCn1c2c(c3ccc([N+](=O)[O-])cc3c1=O)C(=O)c1cc3c(cc1-2)OCO3
GI50 [1]: 0.158 µM
TGI [1]: 7.68 µM
GI50 [2]: < 0.01 µM
TGI [2]: < 0.01 µM
TGI [3]: 2.87 µM
GI50 [4]: 14.4 µM
TGI [4]: > 100 µM
TGI [5]: > 100 µM
GI50 [6]: < 0.0335 µM
TGI [6]: 2.28 µM

COc1cccc(-c2nn(-c3ccccc3)cc2-c2ccnc(NCCCNC(=O)c3cccc(C(F)(F)F)c3)c2)c1
GI50 [1]: 3.54 µM
TGI [1]: 18.5 µM
GI50 [2]: 4.63 µM
TGI [2]: 30.3 µM
GI50 [3]: 4.52 µM
TGI [3]: 19.7 µM
GI50 [4]: 5.45 µM
TGI [4]: 25.3 µM
GI50 [5]: 3.69 µM
TGI [5]: 31.3 µM
GI50 [6]: 2.69 µM
TGI [6]: 16.6 µM

COc1cccc(/C=C/c2nc3c(cnn3-c3ccccc3)c(=O)[nH]2)c1
GI50 [1]: 0.467 µM
TGI [1]: > 100 µM
GI50 [2]: > 39 µM
TGI [2]: > 100 µM
GI50 [3]: 24.9 µM
TGI [3]: > 100 µM
GI50 [4]: > 100 µM
TGI [4]: > 100 µM
TGI [5]: > 100 µM
GI50 [6]: > 56.8 µM
TGI [6]: > 100 µM
